Data as given in ChEMBL document CHEMBL1201862, “PubChem BioAssay data set” (2004).
Active and inactive are the calls of the source.

Tests used:
Type in all cases: functional
[1] = target: T1, Endoribonuclease toxin MazF (Escherichia coli K-12, UniProt P0AE70); test: MazF toxin RNase activators, dose response, biochemical, fluorescence, single-stranded RNA substrate, uHTS hits (AID 588481)
T1 sequence (P0AE70 whole entry): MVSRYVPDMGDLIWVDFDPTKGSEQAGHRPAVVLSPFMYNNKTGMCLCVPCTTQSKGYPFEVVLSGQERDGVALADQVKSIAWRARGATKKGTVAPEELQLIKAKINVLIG

[2] = target: T1, Endoribonuclease toxin MazF; test: fluorescent RNA oligo signal without MazF, dose response, counter-screen for MazEF activator project, biochemical, fluorescence, single-stranded RNase substrate (AID 588502)
Beta-galactosidase = Beta-galactosidase (Escherichia coli, UniProt Q8VNN2); test: PubChem AID 485352
[3] = target: T2, Type-1 angiotensin II receptor (Homo sapiens, UniProt P30556); test: AT1 receptor antagonists, dose response, selectivity assay for APJ receptor antagonist project, cell-based, uHTS hits (AID 463214);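 also: antagonist potency against angiotensin II stimulated AT1 response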
T2 sequence (P30556 whole entry): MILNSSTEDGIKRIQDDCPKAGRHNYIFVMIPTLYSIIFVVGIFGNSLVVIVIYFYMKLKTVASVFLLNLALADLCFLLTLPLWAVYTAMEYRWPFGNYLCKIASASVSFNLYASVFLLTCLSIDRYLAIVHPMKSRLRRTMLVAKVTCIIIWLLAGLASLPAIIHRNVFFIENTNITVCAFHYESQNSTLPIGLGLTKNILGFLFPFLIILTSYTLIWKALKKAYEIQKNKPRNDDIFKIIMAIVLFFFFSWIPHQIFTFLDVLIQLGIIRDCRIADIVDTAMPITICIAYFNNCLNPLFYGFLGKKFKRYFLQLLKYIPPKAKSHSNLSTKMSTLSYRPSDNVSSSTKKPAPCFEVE

Beta-galactosidase, sequence (Q8VNN2 whole entry): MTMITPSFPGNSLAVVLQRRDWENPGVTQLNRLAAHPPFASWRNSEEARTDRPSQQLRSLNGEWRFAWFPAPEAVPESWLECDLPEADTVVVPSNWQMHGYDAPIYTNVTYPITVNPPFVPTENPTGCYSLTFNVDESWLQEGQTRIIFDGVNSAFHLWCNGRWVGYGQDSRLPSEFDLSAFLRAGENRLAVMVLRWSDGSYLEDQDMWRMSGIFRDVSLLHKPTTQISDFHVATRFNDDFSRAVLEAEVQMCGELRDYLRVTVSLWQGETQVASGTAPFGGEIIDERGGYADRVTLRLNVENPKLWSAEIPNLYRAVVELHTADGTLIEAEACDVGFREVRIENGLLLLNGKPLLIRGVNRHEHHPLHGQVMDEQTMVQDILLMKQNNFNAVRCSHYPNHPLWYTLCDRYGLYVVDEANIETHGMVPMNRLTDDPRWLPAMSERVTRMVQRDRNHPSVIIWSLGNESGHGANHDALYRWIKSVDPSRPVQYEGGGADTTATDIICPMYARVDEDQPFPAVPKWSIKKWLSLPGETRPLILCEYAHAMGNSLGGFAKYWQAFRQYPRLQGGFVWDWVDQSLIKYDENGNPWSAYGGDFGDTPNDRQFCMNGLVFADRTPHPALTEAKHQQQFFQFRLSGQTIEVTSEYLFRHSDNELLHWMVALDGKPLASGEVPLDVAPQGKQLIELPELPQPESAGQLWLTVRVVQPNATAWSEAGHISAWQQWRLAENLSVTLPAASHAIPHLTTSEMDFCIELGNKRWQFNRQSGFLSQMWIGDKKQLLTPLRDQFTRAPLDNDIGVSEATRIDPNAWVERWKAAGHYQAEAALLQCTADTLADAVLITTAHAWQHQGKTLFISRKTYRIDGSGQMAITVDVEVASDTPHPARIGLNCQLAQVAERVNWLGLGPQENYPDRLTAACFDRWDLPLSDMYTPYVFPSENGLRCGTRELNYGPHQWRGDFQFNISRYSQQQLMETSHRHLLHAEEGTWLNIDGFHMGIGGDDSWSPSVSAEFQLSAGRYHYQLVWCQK

Compound: Cc1cc(OCC(=O)NCc2ccc(S(N)(=O)=O)cc2)c2c3c(c(=O)oc2c1)CCC3
- EC50 [1]: > 99 µM (inactive)
- EC50 [2]: > 99 µM (inactive)

Compound: O=C(CCC(=O)OCC(=O)c1cccc([N+](=O)[O-])c1)Nc1cccc(Cl)c1Cl
- EC50 (Beta-galactosidase): > 40 µM (inactive)
- IC50 [3]: 34.2 µM (not active)
